Measurements as given in BindingDB's records for PubMed 34225181 (University of Electronic Science and Technology of China, 2021).

Test: Inhibition of L1 (unknown origin) using cefazolin as substrate incubated for 5 mins by Agilent UV8453 spectrometric analysis

Compound: O=C(NNC(=S)S)c1ccccc1O
- IC50: 380 nM
